Where only a bound is given, the exact number is not on record here.

The target of assay [1] is T1, Tyrosine-protein kinase Tec (Homo sapiens) (UniProt P42680).
T1 sequence (whole entry): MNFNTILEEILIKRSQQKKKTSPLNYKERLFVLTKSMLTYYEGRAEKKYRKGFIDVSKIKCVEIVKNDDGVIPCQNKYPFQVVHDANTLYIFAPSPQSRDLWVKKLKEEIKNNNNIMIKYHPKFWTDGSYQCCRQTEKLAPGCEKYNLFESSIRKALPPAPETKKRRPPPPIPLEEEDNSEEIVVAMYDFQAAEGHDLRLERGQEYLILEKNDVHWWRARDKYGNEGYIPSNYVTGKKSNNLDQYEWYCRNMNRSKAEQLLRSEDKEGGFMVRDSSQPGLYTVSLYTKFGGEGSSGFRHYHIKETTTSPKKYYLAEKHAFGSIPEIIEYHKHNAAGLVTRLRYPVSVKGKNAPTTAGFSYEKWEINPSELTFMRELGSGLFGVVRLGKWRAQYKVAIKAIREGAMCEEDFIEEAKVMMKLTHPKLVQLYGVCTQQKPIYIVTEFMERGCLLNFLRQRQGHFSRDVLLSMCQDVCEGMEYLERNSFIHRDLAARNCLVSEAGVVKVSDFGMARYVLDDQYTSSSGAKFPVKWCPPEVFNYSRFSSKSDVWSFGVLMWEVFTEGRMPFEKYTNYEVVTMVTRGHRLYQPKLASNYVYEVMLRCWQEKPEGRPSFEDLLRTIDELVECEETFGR
Nature of the assay: Selectivity interaction (Ambit KINOMEscan and KiNATiv profiling in Jurkat cells) EUB0000090b TEC. The format is cell-based. The conditions noted are these: at 1 µM.

Assay [2] concerns the target T2, Receptor-interacting serine/threonine-protein kinase 1 (Homo sapiens) (UniProt Q13546).
T2 sequence (whole entry): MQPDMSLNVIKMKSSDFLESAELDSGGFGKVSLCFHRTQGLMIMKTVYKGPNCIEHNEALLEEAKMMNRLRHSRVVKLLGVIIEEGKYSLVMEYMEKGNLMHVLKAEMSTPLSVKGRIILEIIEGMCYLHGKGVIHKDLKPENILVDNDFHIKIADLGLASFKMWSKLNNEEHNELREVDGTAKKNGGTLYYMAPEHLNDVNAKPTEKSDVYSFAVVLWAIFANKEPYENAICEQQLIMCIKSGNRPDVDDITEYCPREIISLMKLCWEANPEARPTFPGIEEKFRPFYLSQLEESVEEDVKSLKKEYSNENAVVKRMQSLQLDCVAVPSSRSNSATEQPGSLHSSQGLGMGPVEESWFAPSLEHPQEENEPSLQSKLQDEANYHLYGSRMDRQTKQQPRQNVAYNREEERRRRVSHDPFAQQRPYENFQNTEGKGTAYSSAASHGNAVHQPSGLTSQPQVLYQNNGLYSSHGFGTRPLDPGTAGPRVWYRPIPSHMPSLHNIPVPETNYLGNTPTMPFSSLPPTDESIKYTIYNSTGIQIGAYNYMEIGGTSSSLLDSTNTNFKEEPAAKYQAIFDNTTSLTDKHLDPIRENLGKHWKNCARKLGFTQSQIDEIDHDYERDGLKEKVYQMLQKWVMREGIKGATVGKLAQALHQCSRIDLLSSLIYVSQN
The assay can be described thus: Selectivity interaction (KinomeScan (DiscoverX)) EUB0000607a RIPK1. The settings on record: at 10 µM.

For another assay, the target named is Activated CDC42 kinase 1 (Homo sapiens, UniProt Q07912). Nature of the assay: Selectivity interaction (KinomeScan (DiscoverX)) EUB0001079a TNK2. The settings on record: at 1 µM.
Assay [3] concerns the target Muscarinic acetylcholine receptor M3 (Homo sapiens, UniProt P20309). The assay can be described thus: Selectivity interaction (Muscarinic M3 receptor assay, human recombinant ) EUB0000877a CHRM3.
A further assay concerns the target Aurora kinase B (Homo sapiens, UniProt Q96GD4). Nature of the assay: Selectivity interaction (ActivX KiNativ screen (kinase selectivity in THP-1 cell lysates)) EUB0000639a AURKB. In kind it is subcellular. The settings on record: lysate, at 0.2 µM.
Assay [4] concerns the target Protein kinase C delta type (Homo sapiens) (UniProt Q05655). The conditions noted are these: at 10 µM.
In assay [5] the target is Tyrosine-protein kinase HCK (Homo sapiens) (UniProt P08631). The conditions noted are these: at 10 µM.
Assay [6] concerns the target Protein kinase C beta type (Homo sapiens, UniProt P05771).
In assay [7] the target is T3, Ankyrin repeat and protein kinase domain-containing protein 1 (Homo sapiens) (UniProt Q8NFD2).
T3 sequence (whole entry): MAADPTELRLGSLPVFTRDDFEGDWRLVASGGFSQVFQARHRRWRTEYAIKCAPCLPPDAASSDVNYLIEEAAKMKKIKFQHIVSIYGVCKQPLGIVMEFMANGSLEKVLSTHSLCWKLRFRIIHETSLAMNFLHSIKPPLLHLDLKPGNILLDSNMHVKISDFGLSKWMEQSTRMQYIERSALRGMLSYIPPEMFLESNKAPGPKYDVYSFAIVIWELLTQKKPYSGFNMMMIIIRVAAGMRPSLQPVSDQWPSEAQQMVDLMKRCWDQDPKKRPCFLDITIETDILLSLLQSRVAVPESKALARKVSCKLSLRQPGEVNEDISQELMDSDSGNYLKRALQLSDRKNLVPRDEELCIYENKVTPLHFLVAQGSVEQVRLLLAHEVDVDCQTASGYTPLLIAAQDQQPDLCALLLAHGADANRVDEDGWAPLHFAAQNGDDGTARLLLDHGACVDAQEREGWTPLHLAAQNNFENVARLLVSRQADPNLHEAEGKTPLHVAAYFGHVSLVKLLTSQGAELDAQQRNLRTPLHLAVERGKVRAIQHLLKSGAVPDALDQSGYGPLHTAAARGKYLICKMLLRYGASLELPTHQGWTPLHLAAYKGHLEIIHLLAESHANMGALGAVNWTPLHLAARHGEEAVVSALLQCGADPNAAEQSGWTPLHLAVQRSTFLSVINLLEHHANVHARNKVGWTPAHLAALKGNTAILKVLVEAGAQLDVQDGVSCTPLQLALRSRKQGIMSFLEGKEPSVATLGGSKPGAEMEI
The assay can be described thus: Selectivity interaction (KinomeScan (DiscoverX)) EUB0000045b ANKK1.

Assay [8] concerns the target T4, Mitogen-activated protein kinase 12 (Homo sapiens) (UniProt P53778).
T4 sequence (whole entry): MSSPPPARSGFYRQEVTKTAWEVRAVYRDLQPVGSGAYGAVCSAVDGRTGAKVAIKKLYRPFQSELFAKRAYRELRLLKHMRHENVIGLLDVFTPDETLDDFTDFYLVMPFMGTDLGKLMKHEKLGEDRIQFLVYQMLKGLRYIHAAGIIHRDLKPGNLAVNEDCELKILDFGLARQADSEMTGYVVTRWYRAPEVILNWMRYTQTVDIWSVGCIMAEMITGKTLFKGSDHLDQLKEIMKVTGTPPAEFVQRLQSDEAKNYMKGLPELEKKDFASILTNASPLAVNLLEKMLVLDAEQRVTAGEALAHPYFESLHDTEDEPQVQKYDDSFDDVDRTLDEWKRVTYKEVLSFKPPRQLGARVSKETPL
The assay can be described thus: Selectivity interaction (KinomeScan (DiscoverX)) EUB0000595a MAPK12. The conditions noted are these: at 10 µM.

Protein kinase C beta type, sequence (P05771 whole entry, the tested form may be a part): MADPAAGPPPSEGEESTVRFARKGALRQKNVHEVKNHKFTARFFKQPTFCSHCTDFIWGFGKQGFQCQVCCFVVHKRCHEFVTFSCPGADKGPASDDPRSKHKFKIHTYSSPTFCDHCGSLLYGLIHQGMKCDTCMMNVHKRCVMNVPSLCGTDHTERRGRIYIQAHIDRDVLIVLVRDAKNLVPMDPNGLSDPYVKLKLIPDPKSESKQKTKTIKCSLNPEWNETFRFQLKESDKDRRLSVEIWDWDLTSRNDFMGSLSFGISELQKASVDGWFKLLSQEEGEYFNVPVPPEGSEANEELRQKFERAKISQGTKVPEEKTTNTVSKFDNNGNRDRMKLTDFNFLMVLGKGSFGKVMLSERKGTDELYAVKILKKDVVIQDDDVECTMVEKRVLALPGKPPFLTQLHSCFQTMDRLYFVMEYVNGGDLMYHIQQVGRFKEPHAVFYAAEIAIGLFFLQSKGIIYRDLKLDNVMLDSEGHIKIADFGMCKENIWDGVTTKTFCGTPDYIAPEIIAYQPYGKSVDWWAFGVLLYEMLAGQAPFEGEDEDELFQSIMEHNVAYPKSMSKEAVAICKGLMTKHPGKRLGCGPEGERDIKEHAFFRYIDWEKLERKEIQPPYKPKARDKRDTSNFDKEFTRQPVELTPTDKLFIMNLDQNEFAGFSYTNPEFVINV
Muscarinic acetylcholine receptor M3, sequence (P20309 whole entry): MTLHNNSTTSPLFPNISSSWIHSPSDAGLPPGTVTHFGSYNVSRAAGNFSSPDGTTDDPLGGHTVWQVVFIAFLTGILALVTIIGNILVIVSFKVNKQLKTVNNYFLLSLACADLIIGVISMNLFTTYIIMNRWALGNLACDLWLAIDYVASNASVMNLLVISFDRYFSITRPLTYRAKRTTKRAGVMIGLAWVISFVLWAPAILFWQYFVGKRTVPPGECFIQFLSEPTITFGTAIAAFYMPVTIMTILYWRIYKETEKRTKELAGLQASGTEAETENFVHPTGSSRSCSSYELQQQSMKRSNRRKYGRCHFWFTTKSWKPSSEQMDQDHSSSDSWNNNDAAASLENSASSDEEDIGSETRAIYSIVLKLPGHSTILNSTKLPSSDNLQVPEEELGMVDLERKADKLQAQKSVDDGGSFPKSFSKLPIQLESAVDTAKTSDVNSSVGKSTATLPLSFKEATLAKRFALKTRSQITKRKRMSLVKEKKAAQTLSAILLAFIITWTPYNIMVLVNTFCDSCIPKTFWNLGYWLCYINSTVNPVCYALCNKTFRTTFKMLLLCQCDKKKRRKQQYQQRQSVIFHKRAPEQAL
Aurora kinase B, sequence (Q96GD4 whole entry): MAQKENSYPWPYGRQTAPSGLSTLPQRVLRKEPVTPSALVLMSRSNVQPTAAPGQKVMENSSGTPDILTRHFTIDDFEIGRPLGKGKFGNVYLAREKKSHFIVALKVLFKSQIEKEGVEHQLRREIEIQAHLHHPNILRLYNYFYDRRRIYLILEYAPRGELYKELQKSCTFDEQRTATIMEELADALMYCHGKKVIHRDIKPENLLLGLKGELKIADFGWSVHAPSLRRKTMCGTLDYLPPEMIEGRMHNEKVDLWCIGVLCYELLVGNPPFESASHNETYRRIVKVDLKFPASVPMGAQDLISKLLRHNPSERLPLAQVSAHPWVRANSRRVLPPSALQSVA
Activated CDC42 kinase 1, sequence (Q07912 whole entry, looked up): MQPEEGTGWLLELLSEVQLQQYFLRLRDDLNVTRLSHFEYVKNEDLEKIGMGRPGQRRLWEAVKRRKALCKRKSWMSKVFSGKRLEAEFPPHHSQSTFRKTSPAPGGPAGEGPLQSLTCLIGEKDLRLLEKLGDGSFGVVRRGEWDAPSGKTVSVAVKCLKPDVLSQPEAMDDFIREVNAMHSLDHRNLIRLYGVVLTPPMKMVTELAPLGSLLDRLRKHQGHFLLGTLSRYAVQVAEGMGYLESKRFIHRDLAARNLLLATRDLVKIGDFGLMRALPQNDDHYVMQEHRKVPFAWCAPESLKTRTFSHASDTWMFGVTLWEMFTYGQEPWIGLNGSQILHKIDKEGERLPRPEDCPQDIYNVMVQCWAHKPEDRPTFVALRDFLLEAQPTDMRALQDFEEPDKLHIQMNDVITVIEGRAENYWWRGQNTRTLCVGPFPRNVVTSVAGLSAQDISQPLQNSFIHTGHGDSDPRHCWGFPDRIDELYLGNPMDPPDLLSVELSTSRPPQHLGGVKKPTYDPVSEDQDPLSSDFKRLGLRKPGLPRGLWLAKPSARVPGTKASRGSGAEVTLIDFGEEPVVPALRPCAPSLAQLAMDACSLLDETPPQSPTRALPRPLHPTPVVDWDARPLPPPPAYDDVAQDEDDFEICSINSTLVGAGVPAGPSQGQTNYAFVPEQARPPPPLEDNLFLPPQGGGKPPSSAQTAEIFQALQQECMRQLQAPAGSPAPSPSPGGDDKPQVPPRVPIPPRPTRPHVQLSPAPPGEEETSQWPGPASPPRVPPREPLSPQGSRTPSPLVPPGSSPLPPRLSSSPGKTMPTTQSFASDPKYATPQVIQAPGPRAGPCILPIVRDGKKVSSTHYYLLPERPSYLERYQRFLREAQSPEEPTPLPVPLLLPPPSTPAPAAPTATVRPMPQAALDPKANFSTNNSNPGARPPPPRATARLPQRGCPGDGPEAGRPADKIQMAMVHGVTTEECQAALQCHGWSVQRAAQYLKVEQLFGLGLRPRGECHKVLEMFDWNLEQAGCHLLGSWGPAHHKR
Protein kinase C delta type (Homo sapiens), sequence (Q05655 whole entry, looked up): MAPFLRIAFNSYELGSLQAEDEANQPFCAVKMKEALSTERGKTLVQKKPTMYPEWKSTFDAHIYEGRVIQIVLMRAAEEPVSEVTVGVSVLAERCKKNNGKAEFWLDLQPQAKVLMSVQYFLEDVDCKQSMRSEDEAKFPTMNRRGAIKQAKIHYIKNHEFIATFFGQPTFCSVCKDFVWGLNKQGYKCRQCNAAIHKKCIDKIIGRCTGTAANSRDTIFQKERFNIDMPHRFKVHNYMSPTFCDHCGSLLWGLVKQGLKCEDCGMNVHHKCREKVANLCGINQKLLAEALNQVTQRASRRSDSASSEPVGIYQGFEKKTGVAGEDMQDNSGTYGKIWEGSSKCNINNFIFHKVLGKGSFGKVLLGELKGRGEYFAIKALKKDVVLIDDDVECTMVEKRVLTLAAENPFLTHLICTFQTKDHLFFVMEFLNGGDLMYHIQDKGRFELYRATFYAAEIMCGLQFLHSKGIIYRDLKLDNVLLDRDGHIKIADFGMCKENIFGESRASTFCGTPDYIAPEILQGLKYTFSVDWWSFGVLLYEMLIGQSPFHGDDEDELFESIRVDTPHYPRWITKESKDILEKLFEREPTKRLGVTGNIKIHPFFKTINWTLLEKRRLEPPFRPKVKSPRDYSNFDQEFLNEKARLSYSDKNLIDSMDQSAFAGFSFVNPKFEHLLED
Tyrosine-protein kinase HCK (Homo sapiens), sequence (P08631 2-526 limits assumed): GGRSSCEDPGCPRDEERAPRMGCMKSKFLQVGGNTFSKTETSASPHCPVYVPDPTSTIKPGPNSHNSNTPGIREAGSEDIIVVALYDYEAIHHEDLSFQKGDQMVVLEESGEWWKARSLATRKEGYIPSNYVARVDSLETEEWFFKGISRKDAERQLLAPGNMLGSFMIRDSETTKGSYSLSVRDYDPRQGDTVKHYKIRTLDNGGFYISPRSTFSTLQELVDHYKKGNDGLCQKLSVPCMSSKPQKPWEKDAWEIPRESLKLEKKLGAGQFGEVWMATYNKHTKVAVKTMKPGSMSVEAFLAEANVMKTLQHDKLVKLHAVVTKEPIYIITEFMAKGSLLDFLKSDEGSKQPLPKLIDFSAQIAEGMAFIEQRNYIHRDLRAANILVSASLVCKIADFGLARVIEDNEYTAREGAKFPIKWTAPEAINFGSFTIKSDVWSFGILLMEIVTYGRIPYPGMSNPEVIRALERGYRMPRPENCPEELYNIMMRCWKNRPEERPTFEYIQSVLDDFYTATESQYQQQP

`CN(C)C/C=C/C(=O)Nc1ccc(C(=O)N2CCCC(Nc3ncc(Cl)c(-c4c[nH]c5ccccc45)n3)C2)cc1` (stereo unspecified): the % of control in assay [1] came to 99%.

Turning to `CNC(=O)Nc1ccc(-c2nc(N3CC4CCC(C3)O4)c3cnn(C4CCC5(CC4)OCCO5)c3n2)cc1`, the % of control in assay [2] came out at 83%. In the case of `Nc1cnc(N2CCc3cc(S(=O)(=O)Nc4c(F)cc(Cl)cc4F)cc(N4CCCC4=O)c32)nc1` [TP-020n], the % of control at Activated CDC42 kinase 1 worked out at 91%. The term IC50 denotes the concentration that gives 50% inhibition. For the molecule `CCC(=O)N1CC[C@H](Nc2ncnc3c2CN(c2cnc(OC)c(C(F)(F)F)c2)CC3)C1` [LENIOLISIB], in assay [3], the 50% inhibitory concentration (IC50) was greater than 30 µM. Take `CC[C@@H]1[C@H](F)C(=O)N[C@@H]1COc1nccc2cc(C(N)=O)c(OC)cc12` [ZIMLOVISERTIB]: the % of inhibition at Aurora kinase B was -1%. For `CCN(CC)CCCCNc1ncc2cc(-c3cc(OC)cc(OC)c3)c(NC(=O)NC(C)(C)C)nc2n1`, the % of control in assay [4] and in [5] was 100% throughout. Molecule `CCc1cccc(CC)c1NC(=O)c1nn(C)c2c1CCc1cnc(Nc3ccc(C(=O)NC4CCN(C)CC4)cc3OC(F)(F)F)nc1-2` had an IC50 in [6] greater than 10 µM. `C=CC(=O)Nc1cc(-n2c(=O)ccc3cnc4ccc(-c5ccc(NS(C)(=O)=O)cc5)cc4c32)ccc1C`: the % of control in [7] (at 1 µM) worked out at 100%; in assay [7] (at 10 µM) it was 77%. In assay [8], `COCC(=O)NC/C=C/c1ccc2ncnc(Nc3ccc(Oc4ccc(C)nc4)c(C)c3)c2c1` [CP-724714] showed a % of control of 100%.

Values taken from ChEMBL document CHEMBL5465560, “Selectivity Literature for EUbOPEN Chemogenomic Library” (2024).
